Legend:
Cannabinoid receptor 2 [1] = molecular target: T1, Cannabinoid receptor 2 (Homo sapiens, UniProt P34972); assay: Agonist activity at human CB2 receptor expressed in CHO cells assessed as inhibition of forskolin-induced cAMP release after 45 mins; format: functional, cell-based
Cannabinoid receptor 2 [2] = molecular target: T1, Cannabinoid receptor 2; assay: Displacement of [3H]-CP55940 from human recombinant CB2 receptor after 60 mins
Cannabinoid receptor 1 [3] = molecular target: T2, Cannabinoid receptor 1 (Homo sapiens, UniProt P21554); assay: Displacement of [3H]-CP55940 from human recombinant CB1 receptor after 60 mins
T2 sequence (P21554 whole entry): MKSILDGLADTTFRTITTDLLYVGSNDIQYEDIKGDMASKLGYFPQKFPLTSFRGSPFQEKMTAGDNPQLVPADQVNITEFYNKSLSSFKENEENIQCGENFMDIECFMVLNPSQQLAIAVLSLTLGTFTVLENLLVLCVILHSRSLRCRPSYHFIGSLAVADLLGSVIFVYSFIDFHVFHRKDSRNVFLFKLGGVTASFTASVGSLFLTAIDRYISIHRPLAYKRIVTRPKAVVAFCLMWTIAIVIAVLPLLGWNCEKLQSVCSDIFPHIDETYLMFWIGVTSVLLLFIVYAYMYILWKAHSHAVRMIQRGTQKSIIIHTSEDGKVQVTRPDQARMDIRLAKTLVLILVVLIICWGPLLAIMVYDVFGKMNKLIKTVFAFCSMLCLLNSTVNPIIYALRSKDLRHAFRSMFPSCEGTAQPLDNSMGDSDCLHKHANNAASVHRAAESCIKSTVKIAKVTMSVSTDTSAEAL

Cannabinoid receptor 1 [4] = molecular target: T2, Cannabinoid receptor 1; assay: Agonist activity at human CB1 receptor expressed in CHO cells assessed as inhibition of forskolin-induced cAMP release after 25 mins; format: functional, cell-based
Mus musculus [5] = assay: Neurotoxicity in ICR mouse assessed as psychoactivity at 0.1 to 1 mg/kg, iv; format: toxicity, organism-based; set-up: dose 0.1-1 mg/kg, route intravenous; settings: in vivo
Mus musculus [6] = species: Mus musculus; assay: animal or person; settings: ICR, po, 0.5 h, read-out: INH
[7] = Clearance in rat at 3 mg/kg, iv; format: ADME, organism-based; set-up: dose 3 mg/kg, route intravenous; settings: in vivo
[8] = Half life in cynomolgus monkey at 10 mg/kg, po; format: ADME, organism-based, Macaca fascicularis; set-up: dose 10 mg/kg, route oral; settings: in vivo
[9] = Half life in rat at 10 mg/kg, po; format: ADME, organism-based; set-up: dose 10 mg/kg, route oral; settings: in vivo
[10] = Clearance in beagle dog at 3 mg/kg, iv; format: ADME, organism-based, Canis lupus familiaris; set-up: dose 3 mg/kg, route intravenous; settings: in vivo
Mus musculus [11] = assay: Antipruritic activity in ICR mouse assessed as inhibition of compound 48/80-induced scratching at 10 mg/kg, po measured after 30 mins; format: functional; settings: 0.5 h
[12] = Volume of distribution at steady state in rat at 3 mg/kg, iv; format: ADME, organism-based; set-up: dose 3 mg/kg, route intravenous; settings: in vivo, read-out: Vdss
[13] = Oral bioavailability in beagle dog at 10 mg/kg; format: ADME, organism-based, Canis lupus familiaris; settings: in vivo
[14] = Oral bioavailability in cynomolgus monkey at 10 mg/kg; format: ADME, organism-based, Macaca fascicularis; settings: in vivo
[15] = Half life in beagle dog at 10 mg/kg, po; format: ADME, organism-based, Canis lupus familiaris; set-up: dose 10 mg/kg, route oral; settings: in vivo
[16] = Volume of distribution at steady state in cynomolgus monkey at 3 mg/kg, iv; format: ADME, organism-based, Macaca fascicularis; set-up: dose 3 mg/kg, route intravenous; settings: in vivo, read-out: Vdss
Mus musculus [17] = assay: Antipruritic activity in ICR mouse assessed as inhibition of compound 48/80-induced scratching at 1 mg/kg, po measured after 30 mins; format: functional; settings: 0.5 h
Mus musculus [18] = assay: Antipruritic activity in ICR mouse assessed as inhibition of compound 48/80-induced scratching at 3 mg/kg, po measured after 30 mins; format: functional; settings: 0.5 h
[19] = Oral bioavailability in rat at 10 mg/kg; format: ADME, organism-based; settings: in vivo
[20] = Clearance in cynomolgus monkey at 3 mg/kg, iv; format: ADME, organism-based, Macaca fascicularis; set-up: dose 3 mg/kg, route intravenous; settings: in vivo
[21] = Volume of distribution at steady state in beagle dog at 3 mg/kg, iv; format: ADME, organism-based, Canis lupus familiaris; set-up: dose 3 mg/kg, route intravenous; settings: in vivo, read-out: Vdss

T1 sequence (P34972 whole entry): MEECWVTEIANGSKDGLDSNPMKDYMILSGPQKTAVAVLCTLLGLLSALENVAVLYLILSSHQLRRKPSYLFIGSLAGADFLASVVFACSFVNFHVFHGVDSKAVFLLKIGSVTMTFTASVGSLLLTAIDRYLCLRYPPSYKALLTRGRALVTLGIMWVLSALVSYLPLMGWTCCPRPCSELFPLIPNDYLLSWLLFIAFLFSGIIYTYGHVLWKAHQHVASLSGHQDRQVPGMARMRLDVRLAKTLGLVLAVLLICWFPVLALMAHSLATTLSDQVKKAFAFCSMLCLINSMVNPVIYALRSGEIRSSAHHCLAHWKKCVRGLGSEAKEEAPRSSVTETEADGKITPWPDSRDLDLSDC

SMILES | IC50 (Cannabinoid receptor 2 [1]) [nM] | Ki (Cannabinoid receptor 2 [2]) [nM] | Ki (Cannabinoid receptor 1 [3]) [nM] | IC50 (Cannabinoid receptor 1 [4]) [nM] | also measured
O=C(NC1(C(=O)O)CCCCCCC1)c1cc2c(n(CC3CCCCC3)c1=O)CCCCCC2 | 1 |  |  |  | 
O=C(O)CNC(=O)c1cc2c(n(CC3CCCCC3)c1=O)CCCCCC2 |  | 177 | 1060 |  | 
O=C(NC1(C(=O)O)CCCC1)c1cc2c(n(CC3CCCCC3)c1=O)CCCCCC2 | 14 | 56 | 258 | 113 | 
O=C(NC1(C(=O)O)CCCCC1)c1cc2c(n(CC3CCCCC3)c1=O)CCCCCC2 | 7 | 6.7 | 181 | 76 | Activity (Mus musculus [5]): Non-toxic
CCCCn1c2c(cc(C(=O)NC3(C(=O)O)CCCCC3)c1=O)CCCCCC2 | 7 | 56 | > 5000 | > 2000 | 
O=C(NC1(C(=O)O)CCCCC1)c1cc2c(n(CC3CCCO3)c1=O)CCCCCC2 (stereo not given) |  | 247 | > 5000 |  | 
CCN1CCCC1Cn1c2c(cc(C(=O)NC3(C(=O)O)CCCCC3)c1=O)CCCCCC2 (stereo not given) |  | 2110 |  |  | 
O=C(NC1(C(=O)O)CCCCC1)c1cc2c(n(Cc3ccc(F)cc3)c1=O)CCCCCC2 | 9 | 16 | 266 | 514 | 
N#Cc1ccc(Cn2c3c(cc(C(=O)NC4(C(=O)O)CCCCC4)c2=O)CCCCCC3)cc1 |  | 144 | 3950 |  | 
CCCCn1c(CC)c(C)cc(C(=O)NC2(C(=O)O)CCCCC2)c1=O |  | 348 |  |  | 
CCCCn1c(CCC)c(Br)cc(C(=O)NC2(C(=O)O)CCCCC2)c1=O |  | 382 | > 5000 |  | 
CCCc1c(CC)cc(C(=O)NC2(C(=O)O)CCCCC2)c(=O)n1Cc1ccc(F)cc1 |  | 263 | > 5000 |  | 
COCCn1c2c(cc(C(=O)NC3(C(=O)O)CCCCC3)c1=O)CCCCCC2 |  | 294 | > 5000 |  | 
CC(C)(C(=O)O)c1ccc(C(O)CCCN2CCC(C(O)(c3ccccc3)c3ccccc3)CC2)cc1 (stereo not given) [FEXOFENADINE] |  |  |  |  | inhibition in vivo at 30 mg/kg (Mus musculus [6]): 39%
CCc1c(C)cc(C(=O)NC2(C(=O)O)CCCCC2)c(=O)n1Cc1ccc(F)cc1 [S-777469] |  |  | 4070 | > 2000 | clearance [7]: 11.3 mL/min/kg; half-life [8]: 7.43 h; half-life [9]: 6.2 h; clearance [10]: 6 mL/min/kg; inhibition in vivo at 10 mg/kg (Mus musculus [11]): 59%; Vd [12]: 1.9 L/kg; bioavailability [13]: 18.7%; bioavailability [14]: 9.01%; half-life [15]: 12.8 h; Vd [16]: 0.87 L/kg; inhibition in vivo at 1 mg/kg (Mus musculus [17]): 46%; inhibition in vivo at 3 mg/kg (Mus musculus [18]): 48%; bioavailability [19]: 37.9%; clearance [20]: 13.6 mL/min/kg; Vd [21]: 1.23 L/kg
